Assay results reported in patent US6713506B2, “Tea polyphenol esters and analogs thereof for cancer prevention and treatment” (University of South Florida, priority 2000, dated 2004).
Entries after “also recorded” stand apart in the source; their conditions may differ.

Legend:
[1] = target: T1, purified calpain I (Homo sapiens, UniProt P07384); experiment: Calpain I activity assay; assay type: biochemical; conditions: for inhibition of purified calpain I activity (in words): 10 μM, FIG. 16A
T1 construct: 3 μg purified calpain I (Human Erythrocytes, Calbiochem) is incubated; purchased Calbiochem; host or cells: human erythrocytes (tissue-purified)
T1 sequence (P07384 1-714): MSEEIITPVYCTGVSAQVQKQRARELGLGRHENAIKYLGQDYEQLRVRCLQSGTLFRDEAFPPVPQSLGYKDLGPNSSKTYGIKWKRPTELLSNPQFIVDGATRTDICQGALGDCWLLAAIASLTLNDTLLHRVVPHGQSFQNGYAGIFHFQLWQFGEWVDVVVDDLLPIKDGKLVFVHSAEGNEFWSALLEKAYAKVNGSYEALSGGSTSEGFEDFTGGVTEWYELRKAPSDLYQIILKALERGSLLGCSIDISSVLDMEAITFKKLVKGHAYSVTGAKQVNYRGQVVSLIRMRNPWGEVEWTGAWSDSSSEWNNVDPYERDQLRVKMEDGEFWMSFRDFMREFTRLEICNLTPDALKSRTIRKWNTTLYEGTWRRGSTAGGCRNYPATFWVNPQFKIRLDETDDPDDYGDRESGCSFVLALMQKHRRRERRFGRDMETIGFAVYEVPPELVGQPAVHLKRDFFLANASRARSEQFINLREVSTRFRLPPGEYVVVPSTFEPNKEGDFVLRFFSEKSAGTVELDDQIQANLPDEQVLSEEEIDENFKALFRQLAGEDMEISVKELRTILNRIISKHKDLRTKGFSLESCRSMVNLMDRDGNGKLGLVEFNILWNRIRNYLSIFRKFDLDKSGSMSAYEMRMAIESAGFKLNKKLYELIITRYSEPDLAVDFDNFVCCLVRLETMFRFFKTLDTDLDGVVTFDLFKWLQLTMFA
T1 sequence (P04632 1-268 partner): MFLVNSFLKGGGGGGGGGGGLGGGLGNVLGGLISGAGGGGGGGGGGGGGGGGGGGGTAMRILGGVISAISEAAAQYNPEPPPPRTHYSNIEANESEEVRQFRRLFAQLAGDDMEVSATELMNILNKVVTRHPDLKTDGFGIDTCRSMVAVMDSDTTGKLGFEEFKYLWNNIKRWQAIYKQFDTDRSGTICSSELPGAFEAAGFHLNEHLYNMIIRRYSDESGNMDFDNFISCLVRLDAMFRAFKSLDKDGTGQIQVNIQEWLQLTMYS
Experimental: FIG. 8. […] A). […] Initially, 0.5 μg of purified 20S proteasome is incubated with 20 μM of a fluorogenic peptide substrate, Suc-Leu-Leu-Val-Tyr-AMC, for 30 min at 37° C. in 100 μl of assay buffer (20 mM Tris-HCl, pH 8.0) with various concentrations of tannic acid. After incubation, the reaction mixture is diluted to 200 μl with the assay buffer, followed by measurement of the hydrolyzed 7-amido-4-methyl-coumarin (AMC) groups using a fluorometer with an excitation filter of 380 nm and an emission filter of 460 nm. B). […] Tannic acid (0.3 μg/ml) and Glucose (180 μg/ml) are used in the proteasome activity assay as described above. C). […] Purified calpain I (3 μg) protein is incubated with 40 μM of a fluorogenic peptide substrate, Suc-Leu-Tyr-AMC, for 30 min at 37° C. in 100 μl of assay buffer (50 mM Tris-HCl, pH 7.5, containing 50 mM NaCl, 1 mM EDTA, 1 mM EGTA, 5 mM β-Mercaptoethanol, 5 mM CaCl2, and 0.1% CHAPS) in the absence (control) or presence of 5 μg/ml of tannic acid or 0.18 μg/ml of calpeptin (calpain inhibitor).

[2] = system: Jurkat T cells; experiment: Cell cycle analysis by flow cytometry, Jurkat T cells; assay type: cell-based, human
Experimental: FIG. 6. Cell cycle analysis. Asynchronous Jurkat, LNCaP, WI-38, and VA-13 cells are treated with 10 μM EGCG and harvested at the time points indicated. Cells are prepared and analyzed by flow cytometry as described in the The Materials and Methods section of Example 1. Growth arrest is determined by the increase in the percentage of G1 population.
FIG. 12. […] Jurkat T cells are treated with either 50 μg/ml of tannic acid or buffer (−) for up to 48 h. The harvested cells are fixed, resuspended in 1 ml of PBS containing 50 μg/ml of propidium iodide (PI), 100 U/ml of RNase A, and 1 mg/ml of glucose, and analyzed by flow cytometry. Percentages of cells containing G1 S, G2 and M DNA content are indicated. Percentages of the apoptotic cell population containing sub-G1 DNA content is also indicated. Note: tannic acid treatment results in ˜23% increase in G1 and ˜14% increase in apoptotic cell populations.
Cell cycle analysis—Cell cycle analysis based on DNA content is performed as follows. Cells are harvested, counted and washed twice with PBS. Cells (5×10^6 ) are then suspended in 0.5 ml PBS, pipetted and fixed in 5 ml of 70% ethanol for at least 2 h at −20° C. Cells are centrifuged, resuspended in 1 ml of propidium iodide staining solution (50 μg propidium iodide, 100 units RNase A and 1 mg glucose per ml PBS) and incubated at room temperature for 30 min. The cells are then analyzed with FACScan (Becton Dickinson Immunocytometry, CA.), ModFit LT and WinMDI V.2.8 cell cycle analysis software (Verity Software, Topsham, Me.). The cell cycle distribution is shown as the percentage of cells containing G1, S, G2, and M DNA judged by propidium iodide staining.

[3] = target: T2, proteasomal chymotrypsin-like activity in Jurkat T cell extract (Homo sapiens, UniProt P28074); experiment: Proteasome chymotrypsin-like activity in Jurkat T cell free extract; assay type: biochemical
T2 construct: endogenous in cells; host or cells: Jurkat T cells (whole cell extract or intact cells)
Experimental: FIG. 9. Inhibition of the proteasome activity by tannic acid using a cell free extract. A). The whole cell extract (6.0 μg) from Jurkat T cells is incubated for 90 min at 37° C. with 20 μM of a fluorogenic peptide substrate, Suc-Leu-Leu-Val-Tyr-AMC for the chymotrypsin-like activity, Z-Leu-Leu-Glu-AMC for peptidyl-glutamyl peptide-hydrolyzing (PGPH) activity, and Z-Gly-Gly-Arg-AMC for the trypsin-like activity, in 100 μl of the assay buffer with (filled bars) or without (empty bars) 1 μg/ml of tannic acid. The hydrolyzed AMCs are quantified as described in FIG. 2. B). […] Experiment is performed as described in FIG. 9A.
Inhibition of the proteasome activity with cell free extracts by tea polyphenols—The whole cell extract (3.5 μg) from Jurkat T cells is incubated for 90 min at 37° C. with 20 μM of a fluorogenic peptide substrate, Suc-Leu-Leu-Val-Tyr-AMC (for the chymotrypsin-like activity), Z-Leu-Leu-Glu-AMC [peptidyl-glutamyl peptide-hydrolyzing (PGPH) activity; Calbiochem], and Z-Gly-Gly-Arg-AMC (for the trypsin-like activity; Bachem), in 100 μl of the assay buffer with or without 10 μM EGCG or EGC. The hydrolyzed AMCs are quantified as described above.

[4] = tannic acid 50 μg/ml, up to 48 h

SMILES | inhibition of purified calpain I activity (in words) [1] | inhibition of purified calpain activity (in words) ([1]; FIG. 3B: EGCG 10 μM, calpeptin 1 μM) | increase in G1 population ([2]; 10 μM, 24 h) [%] | inhibition of proteasomal chymotrypsin-like activity in Jurkat T cell extract (in words) [3] | inhibition of proteasomal chymotrypsin-like activity ([3]; 10 μM, Jurkat T cell extract) [%] | inhibition of calpain activity (in words) ([1]; tannic acid 5 μg/ml) | G1 arrest and apoptosis (in words) ([2]; tannic acid) | increase in G1 cell population [2, 4] [%] | increase in apoptotic cell population (sub-G1) [2, 4] [%]
O=C(O[C@@H]1Cc2c(O)cc(O)cc2O[C@@H]1c1cc(O)c(O)c(O)c1)c1cc(O)c(O)c(O)c1 [EGCG, (−)-epigallocatechin-3-gallate] | Neither EGCG nor EGC at 10 μM inhibits | but not EGCG, is able to inhibit | 10 | most potent proteasome inhibitor among all the tested polyphenols | ~70 |  |  |  | 
Oc1cc(O)c2c(c1)O[C@H](c1cc(O)c(O)c(O)c1)[C@H](O)C2 [EGC, (−)-epigallocatechin] | Neither EGCG nor EGC at 10 μM inhibits |  |  | little effect |  |  |  |  | 
O=C(OC[C@H]1O[C@@H](OC(=O)c2cc(O)c(O)c(OC(=O)c3cc(O)c(O)c(O)c3)c2)[C@H](OC(=O)c2cc(O)c(O)c(OC(=O)c3cc(O)c(O)c(O)c3)c2)[C@@H](OC(=O)c2cc(O)c(O)c(OC(=O)c3cc(O)c(O)c(O)c3)c2)[C@@H]1OC(=O)c1cc(O)c(O)c(OC(=O)c2cc(O)c(O)c(O)c2)c1)c1cc(O)c(O)c(OC(=O)c2cc(O)c(O)c(O)c2)c1 [tannic acid] |  |  |  | Dose-dependent inhibition; also recorded: inhibited by tannic acid in a dose-dependent manner |  | does not inhibit | induces G1 arrest and apoptosis | ~23 | ~14
